Data: patent US6573219B1, “Substituted heterocyclyl-2H-chromenes” (Bayer Aktiengesellschaft, priority 1999, dated 2003)

Assays:
weeds [1] = assay: Pre-emergence test (Example A), weeds; assay type: in vivo; conditions: soil sprayed 24 hours after sowing, rated after three weeks
Source text: (§1) Solvent: 5 parts by weight of acetone
(§2) Emulsifier: 1 part by weight of alkylaryl polyglycol ether
Seeds of the test plants are sown in normal soil.
(§3) After three weeks, the degree of damage to the plants is rated in % damage in comparison to the development of the untreated control.

weeds [2] = assay: Post-emergence test (Example B), weeds; assay type: in vivo; conditions: test plants of 5-15 cm sprayed, rated after three weeks
Source text: as §1, §2, §3

[3] = LogP determination by HPLC (EEC directive 79/831 Annex V.A8, reversed-phase C18); assay type: physicochemical; conditions: reversed-phase C18 HPLC column, mobile phase range not labelled
Description: The LogP values given in Table 1 were determined in accordance with EEC directive 79/831 Annex V.A8 by HPLC (High Performance Liquid Chromatography) using a reversed-phase column (C 18). Temperature: 43° C.
(a) Mobile phases for the determination in the acidic range: 0.1% aqueous phosphoric acid, acetonitrile; linear gradient from 10% acetonitrile to 90% acetonitrile—the corresponding data in Table 1 are labelled^a).
(b) Mobile phases for the determination in the neutral range, 0.01 molar aqueous phosphate buffer solution, acetonitrile; linear gradient from 10% acetonitrile to 90% acetonitrile—the corresponding data in Table 1 are labelled b
Calibration was carried out using unbranched alkan-2-ones (with from 3 to 16 carbon atoms) whose logP values are known (determination of the logP values by the retention times using linear interpolation between two successive alkanones).

| SMILES | melting point | chromatographic logP [3] | activity against weeds (degree of damage) (weeds [1]) | activity against weeds (degree of damage) (weeds [2]) |
| --- | --- | --- | --- | --- |
| CC1C=Cc2c(c(C#N)cc(F)c2-n2c(=O)cc(C(F)(F)F)n(N)c2=O)O1 (stereo not shown) [Example 1] |  |  | very strong activity |  |
| CC1C=Cc2c(c(C#N)cc(F)c2-n2nc(C(F)(F)F)n(C)c2=S)O1 (stereo not shown) [Example 2] | 144 °C | 3.37 |  | very strong activity |
| N#Cc1cc(F)c(N2C(=O)c3ccccc3C2=O)cc1O [N-(2-fluoro-4-cyano-5-hydroxy-phenyl)-phthalimide] | 247 °C | 2.04 |  |  |

More lines, main results first:

| melting point | chromatographic logP [3] | SMILES | activity against weeds (degree of damage) (weeds [1]) | activity against weeds (degree of damage) (weeds [2]) |
| --- | --- | --- | --- | --- |
| 170 °C | 2.92 | C#CC(C)Oc1cc(N2C(=O)c3ccccc3C2=O)c(F)cc1C#N (stereo not shown) [Example (II-2), N-[2-fluoro-4-cyano-5-(but-1-in-3-yl)-oxyphenyl]-phthalimide] |  |  |
| 245 °C | 2.51 | COc1cc(N2C(=O)c3ccccc3C2=O)c(F)cc1C#N [N-(2-fluoro-4-cyano-5-methoxy-phenyl)-phthalimide] |  |  |
